# Reference: patent publication US7910557B2, “Hair care product” (Maruzen Pharmaceuticals Co., Ltd., priority 2005, dated 2011)
# Key:
# [1] = molecular target: T1, testosterone 5α-reductase (Rattus norvegicus, UniProt P24008); experiment: Test for testosterone 5α-reductase inhibiting action (S-9 rat liver homogenate, GC quantification); type: biochemical
# T1 construct: 75 μl of S-9 (rat liver homogenate, Oriental Yeast Co., Ltd.); tissue Oriental Yeast Co., Ltd; host or cells: rat liver S-9 homogenate
# T1 sequence (P24008 1-259): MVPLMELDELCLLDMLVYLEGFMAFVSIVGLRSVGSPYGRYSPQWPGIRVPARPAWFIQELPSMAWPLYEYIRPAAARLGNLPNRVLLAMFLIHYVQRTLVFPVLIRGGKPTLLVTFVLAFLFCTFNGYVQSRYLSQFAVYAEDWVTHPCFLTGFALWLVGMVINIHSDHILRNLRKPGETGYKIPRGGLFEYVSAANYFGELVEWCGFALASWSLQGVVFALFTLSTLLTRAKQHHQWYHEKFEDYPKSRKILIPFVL
# [2] = tested on: Normal human head hair papilla cells; experiment: Test for hair papilla cell growth promoting action (MTT assay); type: cell-based; conditions: for Hair papilla cell growth promotion rate (%): 4 days, control = 100
# Protocol: Normal human head hair papilla cells were cultured using a papilla cell growth medium (Cell Application Inc.) containing 2% fetal bovine serum (FBS) and proliferation additives, then the cells were retrieved by trypsinization. The retrieved cells were diluted to a cell concentration of 1.0×10^4 cells/ml using a DMEM medium containing 10% FBS, after which the cells were inoculated in a collagen-coated 96-well plate, at a rate of 200 μl per well, followed by incubation for 3 days. After incubation, the medium was removed and then to the wells there were added 200 μl each of a sample solution in which a respective sample had been dissolved in serum-free DMEM. The wells were then incubated for a further 4 days.
# Once incubation was over, the medium was removed, and then to the wells there was added 100 μl each of MTT dissolved in serum-free DMEM (final concentration 0.4 mg/ml). After 2 hours of incubation, the blue formazan formed inside the cells was extracted with 100 μl of 2-propanol. The absorbance of the extracts was measured at a 570 nm wavelength. Turbidity was measured at the same time, as absorbance at the 650 nm wavelength. The amount of blue formazan formed was taken as the difference between the two absorbances. As a control, the same measurements were carried out for specimens in which serum-less DMEM was added instead of the sample solutions. The hair papilla cell growth promotion rate (%) was calculated from the obtained results using the formula below. Hair papilla cell growth promotion rate(%)=A/B×100
# In the formula, A represents “absorbance upon sample addition”, and B represents “absorbance without sample addition”.
# FGF-7 gene = experiment: FGF-7 mRNA expression promotion in HFDPC (RT-PCR); type: cell-based, human; conditions: for mRNA expression promotion rate (%) FGF-7 mRNA: HFDPC, corrected by G3PDH, control = 100
# Protocol: (§1) The FGF-7 growth promoting action, VEGF growth promoting action and BMP-2 growth promoting action of the corosolic acid obtained in producing examples 1 and 2 (samples 1 and 2) were tested as follows.
# (§2) Human hair follicle dermal papilla cells (HFDPC) were cultured using a human hair follicle dermal papilla cells growth medium (PCGM), then the cells were retrieved by trypsinization. The retrieved cells were diluted to a cell concentration of 2×10^5 cells/ml using a DMEM medium containing 10% FBS, after which the cells were inoculated in 60 mm-diameter Petri dishes, at a rate of 5 ml, followed by incubation overnight.
# (§3) Once incubation was over, the cells were changed to a serum-less DMEM medium to which the samples (sample 1 and 2) had been added after two-hour incubation, then the cells were dissolved in 1 ml of a reagent for RNA extraction (TRIzol, Invitrogen Corporation). After addition of 200 μl of chloroform to the solutions, these were centrifuged (12000 rpm, 4° C., 15 minutes) and the top RNA layer was isolated. The RNA layer was concentrated in isopropanol. The total RNA concentrated and precipitated was dissolved in a TE solution (10 mM Tris-HCl/1 mM EDTA, pH 8.0), and was taken as a total RNA standard (sequence numbers 1 to 3) used in a template of quantitative RT-PCR for measuring the mRNA expression level of the FGF-7 gene, the VEGF gene and the BMP-2 gene. […]
# (§4) After synthesizing single-strand DNA from 500 ng of total RNA in a PCR apparatus (TaKaRa PCR Thermal Cycler MP, TAKARA BIO INC.), the FGF-7 gene (sequence no. 4), the VEGF gene (sequence no. 5), the BMP-2 gene (sequence no. 6), and the G3PDH gene as an internal standard were amplified by PCR reaction, from the single-strand DNA, using specific sense primers (sequence nos. 7 to 9) and antisense primers (sequence nos. 10 to 12) of the respective genes, then 10 μl of the amplified product were electrophoresed on 1.2% agarose gel. […] Then the RT-PCR products were quantitatively measured using KODAK 1D Image Analysis Software EDAS290 Version3.5. […]
# VEGF gene = experiment: VEGF mRNA expression promotion in HFDPC (RT-PCR); type: cell-based, human; conditions: for mRNA expression promotion rate (%) VEGF mRNA: HFDPC, corrected by G3PDH, control = 100
# Protocol: as §1, §2, §3, §4
# BMP-2 gene = experiment: BMP-2 mRNA expression promotion in HFDPC (RT-PCR); type: cell-based, human; conditions: for mRNA expression promotion rate (%) BMP-2 mRNA: HFDPC, corrected by G3PDH, control = 100
# Protocol: as §1, §2, §3, §4
# [3] = sample concentration 0.06 μg/ml
# [4] = sample concentration 0.25 μg/ml
smiles,measurement,setting,value
"C[C@H]1[C@H](C)CC[C@]2(C(=O)O)CC[C@]3(C)C(=CC[C@@H]4[C@@]5(C)C[C@@H](O)[C@H](O)C(C)(C)[C@@H]5CC[C@]43C)[C@H]12 [Sample 1, corosolic acid]",IC50,"[1]; S-9 rat liver homogenate, 37° C., 30 minutes, by interpolation, read-out: IC50 (sample concentration at which the inhibition rate of testosterone 5α-reductase is 50%) (converted)",1180 µM
same,testosterone 5α-reductase inhibiting action (in words),[1]; conclusion from Table 1,excellent testosterone 5α-reductase inhibiting action
same,hair papilla cell growth promoting action (in words),[2]; conclusion from Table 2,hair papilla cell growth promoting action
same,Hair papilla cell growth promotion rate (%),[2]; sample concentration 1.56 μg/ml,111.5 ± 2.2%
same,Hair papilla cell growth promotion rate (%),[2]; sample concentration 6.25 μg/ml,106.1 ± 1.4%
same,promotion of mRNA expression of the FGF-7 gene (in words),FGF-7 gene; conclusion from Table 3,promote the mRNA expression
same,mRNA expression promotion rate (%) FGF-7 mRNA,FGF-7 gene; [3],122.9 ± 8.5%
same,mRNA expression promotion rate (%) FGF-7 mRNA,FGF-7 gene; [4],124.8 ± 7.2%
same,promotion of mRNA expression of the VEGF gene (in words),VEGF gene; conclusion from Table 3,promote the mRNA expression
same,mRNA expression promotion rate (%) VEGF mRNA,VEGF gene; [3],121.8 ± 3.5%
same,mRNA expression promotion rate (%) VEGF mRNA,VEGF gene; [4],106.7 ± 4.5%
same,promotion of mRNA expression of the BMP-2 gene (in words),BMP-2 gene; conclusion from Table 3,promote the mRNA expression
same,mRNA expression promotion rate (%) BMP-2 mRNA,BMP-2 gene; [3],105.3 ± 3.8%
same,mRNA expression promotion rate (%) BMP-2 mRNA,BMP-2 gene; [4],135.3 ± 5.5%
